These results are taken from publication PMC4974056, “The proposed channel-enzyme transient receptor potential melastatin 2 does not possess ADP ribose hydrolase activity” (eLife, 2016).

Values joined by “and” are separate entries in the source; they are usually repeats but may differ in a detail not shown here. Equal values may be shown once.

Assay [1] concerns the target T1, Chi4S (Homo sapiens, UniProt O94759).
T1 construct: its C-terminal cytosolic NUDT9-homology (NUDT9H) domain; made in house; host or cells: E. coli BL21 (DE3), pJ411 plasmid
The assay is described as follows: Ligand binding assay based on quenching of ε-ADPR fluorescence. As to conditions: 100 μM Chi4S, 20 mM Tris pH 8.5/100 mM NaCl, 16 mM MgCl2; assuming negligible fluorescence of bound analog; read-out: Kd (upper estimate). How it is done:
The ligand binding ability of purified Chi4S protein was assessed using fluorescence quenching of the ADPR analogue 1, N^6-ethenoadenosine-5’-O-diphosphoribose (ε-ADPR - BIOLOG Life Science Institute, Bremen, Germany). A 350-μl volume of 100 μM Chi4S protein in 20 mM Tris (pH 8.5)/100 mM NaCl buffer, supplemented with 16 mM MgCl2, was titrated by increasing concentrations of ε-ADPR. Fluorescence emission scans (350–700 nm) were recorded at a fixed excitation wavelength of 310 nm (Hitachi F-7000, Hitachi High Technologies, Maidenhead, UK). Fluorescence emission for ε-ADPR peaks at ~410 nm. Protein-free buffer or 100 μM bovine serum albumin (BSA; instead of Chi4S) were used as controls. Data are shown as mean ± S.D. of two independent experiments.
Dose dependence of fluorescence (Em = 420 nm) of free ε-ADPR (in buffer) was fitted by an empirical non-linear function to produce a smooth calibration curve, used to obtain upper estimates of free [ε-ADPR] in the presence of 100 μM Chi4S protein and various total [ε-ADPR], assuming negligible fluorescence for the bound, relative to the free, form of the analog. The plot of free vs. total [ε-ADPR] was fitted by the simple binding equation [ε-ADPR]free=0.5([ε-ADPR]total−[P]total−Kd+([ε-ADPR]total−[P]total−Kd)^2+4Kd[ε-ADPR]total),
where [P]total is the total concentration of Chi4S protein (100 μM), and Kd is a free parameter. […]

For assay [2], the target named is T5L-TRPM2 (Homo sapiens, UniProt O94759, G984L/INS985E/Y985D). Description: Excised inside-out patch-clamp recordings, ADPR-dependent channel activation. It counts as cell-based. How it is done: Oocytes isolated from anaesthetized Xenopus laevis were digested with collagenase, injected with 10–70 ng cRNA, and stored at 18°C. Recordings were done 2–3 days after injection.
The tip of the patch pipette was filled to ~1 cm height with 140 mM Na-gluconate, 2 mM Mg-gluconate2, 10 mM HEPES (pH 7.4 with NaOH); free [Ca^2+] ~4 μM. The pipette electrode was placed into a 140-mM NaCl-based solution carefully layered on top. Bath solution contained 140 mM Na-gluconate, 2 mM Mg-gluconate2, 10 mM HEPES (pH 7.1 with NaOH), and either 1 mM EGTA (to obtain 'zero' (~8 nM) Ca^2+) or 1 mM Ca-gluconate2 (to obtain 125 μM free Ca^2+) ([Csanády and Törocsik, 2009]). Na-ADPR was used at final concentrations of 0.32, 1, 3.2, 10, 32, 100, or 1000 μM, and the Na^+ salt of ε-ADPR at 100 μM. Macroscopic TRPM2 currents were recorded at 25°C at a membrane potential of −20 mV. Currents were amplified, filtered at 2 kHz (Axopatch 200B), digitized at 10 kHz (Digidata 1322A), and stored to disk (Pclamp9, Molecular Devices, Sunnyvale, CA, USA).
Dose dependence of ADPR-induced current activation, expressed as the ratio of mean macroscopic currents observed in the presence of various test [ADPR] (I) and 32 (or 100) μM ADPR (Imax) in the same patch, was fitted to the Hill equation (I/Imax = [ADPR]^n/(K^n+[ADPR]^n). Dose dependence of ADPR-activation in the presence of 100 μM ε-ADPR was expressed as the ratio of the currents observed in the presence of various test [ADPR] + 100 μM ε-ADPR (I) and 100 μM ADPR alone (Imax) in the same patch, and was fitted to the Hill equation substituting K' = K(1+[ε-ADPR]/KI) instead of K (K and n fixed to their control values). Macroscopic current decay time courses following removal of ADPR or Ca^2+ were fitted by single exponentials using the method of least squares.

T1 sequence (O94759 with tags, fused parts or gaps limits assumed): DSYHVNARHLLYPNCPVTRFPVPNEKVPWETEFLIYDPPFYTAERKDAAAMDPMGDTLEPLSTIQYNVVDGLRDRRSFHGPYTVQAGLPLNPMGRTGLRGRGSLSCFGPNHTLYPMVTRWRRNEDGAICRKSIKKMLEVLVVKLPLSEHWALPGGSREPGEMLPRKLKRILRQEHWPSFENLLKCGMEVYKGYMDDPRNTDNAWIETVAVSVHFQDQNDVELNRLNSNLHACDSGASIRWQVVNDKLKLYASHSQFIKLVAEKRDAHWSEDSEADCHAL
Sequence of T5L-TRPM2 (O94759 whole entry, stated change not applied): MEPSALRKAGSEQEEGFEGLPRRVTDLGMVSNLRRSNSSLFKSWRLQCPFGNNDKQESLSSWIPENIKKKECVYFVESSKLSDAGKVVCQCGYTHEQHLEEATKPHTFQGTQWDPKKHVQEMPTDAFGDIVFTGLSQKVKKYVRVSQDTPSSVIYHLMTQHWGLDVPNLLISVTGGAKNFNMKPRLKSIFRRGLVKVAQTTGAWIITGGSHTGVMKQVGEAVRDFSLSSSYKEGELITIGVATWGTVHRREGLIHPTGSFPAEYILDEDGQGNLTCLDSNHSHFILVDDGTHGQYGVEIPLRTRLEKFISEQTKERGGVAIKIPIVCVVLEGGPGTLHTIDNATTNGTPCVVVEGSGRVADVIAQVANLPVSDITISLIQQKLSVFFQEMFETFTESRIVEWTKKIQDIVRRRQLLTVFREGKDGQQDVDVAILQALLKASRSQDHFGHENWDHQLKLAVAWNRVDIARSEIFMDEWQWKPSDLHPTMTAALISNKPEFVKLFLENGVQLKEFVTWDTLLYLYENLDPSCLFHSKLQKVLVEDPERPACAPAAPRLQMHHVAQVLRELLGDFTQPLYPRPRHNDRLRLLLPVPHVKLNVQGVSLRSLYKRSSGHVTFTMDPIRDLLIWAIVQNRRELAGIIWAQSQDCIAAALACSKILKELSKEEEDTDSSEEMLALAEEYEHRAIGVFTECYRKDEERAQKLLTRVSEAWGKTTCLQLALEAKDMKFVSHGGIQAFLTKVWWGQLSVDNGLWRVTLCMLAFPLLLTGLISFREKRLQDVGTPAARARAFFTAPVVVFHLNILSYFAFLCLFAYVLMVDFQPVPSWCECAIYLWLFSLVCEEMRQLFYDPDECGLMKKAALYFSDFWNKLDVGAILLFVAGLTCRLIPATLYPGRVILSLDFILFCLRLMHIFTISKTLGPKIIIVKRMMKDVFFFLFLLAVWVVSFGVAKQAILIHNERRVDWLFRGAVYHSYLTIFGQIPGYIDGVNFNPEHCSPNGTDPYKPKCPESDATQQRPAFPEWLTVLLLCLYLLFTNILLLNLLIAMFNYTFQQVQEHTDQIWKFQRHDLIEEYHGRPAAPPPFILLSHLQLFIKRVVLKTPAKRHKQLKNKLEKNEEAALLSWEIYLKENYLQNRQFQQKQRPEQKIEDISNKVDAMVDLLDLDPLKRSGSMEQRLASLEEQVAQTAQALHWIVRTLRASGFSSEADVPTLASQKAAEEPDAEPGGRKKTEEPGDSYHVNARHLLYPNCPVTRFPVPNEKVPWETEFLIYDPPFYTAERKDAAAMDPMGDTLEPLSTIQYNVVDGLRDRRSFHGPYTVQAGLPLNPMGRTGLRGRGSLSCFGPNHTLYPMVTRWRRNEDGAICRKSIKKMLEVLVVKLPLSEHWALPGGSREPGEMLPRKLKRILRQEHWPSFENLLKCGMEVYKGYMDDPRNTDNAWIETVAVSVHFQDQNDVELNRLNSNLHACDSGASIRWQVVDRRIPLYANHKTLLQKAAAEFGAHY

Usually Kd stands for the concentration at which binding is half-saturated. For orientation: Ki means a measure of affinity in units of concentration, obtained from inhibition or displacement. As for `O=P(O)(OC[C@H]1OC(O)[C@H](O)[C@@H]1O)OP(=O)(O)OC[C@H]1O[C@@H](n2cnc3c2ncn2ccnc32)[C@H](O)[C@@H]1O` (stereo partly drawn) [ε-ADPR, 1, N^6-ethenoadenosine-5’-O-diphosphoribose], the Kd in assay [1] was 111 µM and ≤ 111 µM. In assay [2] (inside-out patch, 1 or 100 μM ADPR), the “effect on ADPR-evoked TRPM2 currents” value is recorded as “suppressed ADPR-evoked TRPM2 currents in a dose-dependent manner”. Moreover, in assay [2] (right-shift of ADPR dose response in the presence of 100 μM ε-ADPR, competitive fit, read-out: KI (Kε-ADPR) for binding to native NUDT9H), the inhibition constant Ki was 112 ± 24 µM.
